Assay results as given in US20230348424A1, “HETEROCYCLIC COMPOUNDS AND METHODS OF USE” (Schrödinger, Inc., priority 2022, published 2023).

Tests used:
[1] = target: SOS1:KRAS (G12C) interaction (Homo sapiens (Human), UniProt Q07889); assay: SOS1 KRas(G12C) FRET Assay; format: binding; settings: 0.5 nM His10-SOS1 (res. 564-1049), 2.5 nM GST-KRAS G12C (res. 1-169), 2 hrs at RT
How it was run: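 GST-KRAS G12C (res. 1-169) at 2.5 nM and His10-SOS1 (res. 564-1049) at 0.5 nM, final, in PBS with 0.1% BSA, 5 mM MgCl2, 100 mM KF, 5 mM DTT and 0.5% DMSO. After 2 h at RT, FRET read at 665/615 nm and normalized to DMSO and no-SOS1 controls. IC50 by non-linear regression.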

human SOS1 = human SOS1 (Homo sapiens (Human), UniProt Q07889); assay: Surface Plasmon Resonance (SPR) SOS1 Binding Assay; settings: biotinylated SOS1 (res. 564-1049), Biacore 8K, 25° C., kinetic or steady state fit, 1:1 binding; read-out: hSOS1 KD
How it was run: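 Biotinylated Avi-tagged human SOS1 (res. 564-1049) captured on streptavidin chip (~3,000 RU); compounds injected 60 s, dissociation 600 s, at 25° C in Tris pH 8.0 buffer with 5% DMSO. Reference- and blank-subtracted; KD from kinetic or steady-state 1:1 binding fit.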

Row | Molecule | IC50 [1] [nM] | Kd (human SOS1) [nM]
1 | C[C@@H](NC(=O)c1cn(C2(C(F)(F)F)CC2)c(=O)cc1N[C@H]1[C@@H]2CC[C@H]1CN(C)C2)c1cccc(C(F)F)c1F (single isomer, unassigned) [Example 139] | 49.7 | 25
2 | C[C@@H](NC(=O)c1cn(C2(C(F)F)CC2)c(=O)cc1N[C@@H]1CCN(C)C[C@@H]1F)c1cccc(C(F)F)c1F (single isomer, unassigned) [Example 63] | 11.3 | 7
3 | C[C@@H]1[C@@H](n2cc(C(=O)N[C@H](C)c3cccc(C(F)F)c3F)c(N[C@H]3[C@@H]4CN(C)C[C@@H]43)cc2=O)C1(F)F (single isomer, unassigned) [Example 109] | 3.6 | 2
4 | C[C@@H](NC(=O)c1cn(C23CC(C)(C2)C3)c(=O)cc1N[C@H]1[C@@H]2CN(C)C[C@@H]21)c1cccc(C(F)F)c1F [Example 98, N-((R)-1-(3-(difluoromethyl)-2-fluorophenyl)ethyl)-4-(((1R,5S,6s)-3-methyl-3-azabicyclo[3.1.0]hexan-6-yl)amino)-1-(3-methylbicyclo[1.1.1]pentan-1-yl)-6-oxo-1,6-dihydropyridine-3-carboxamide] | 13.4 | 6
5 | C[C@@H](NC(=O)c1cn([C@H]2[C@H](C)C2(F)F)c(=O)cc1N[C@H]1[C@@H]2CN(C)C[C@@H]21)c1cccc(C(F)F)c1F (single isomer, unassigned) [Example 110] | 23.8 | 12
6 | C[C@@H](NC(=O)c1cn(C2(C(F)F)CC2)c(=O)cc1N[C@H]1CCN(C)C[C@H]1F)c1cccc(C(F)F)c1F (single isomer, unassigned) [Example 64] | 15 | 9
7 | C[C@@H](NC(=O)c1cn([C@H]2CCC2(F)F)c(=O)cc1N[C@H]1[C@@H]2CN(C)C[C@@H]21)c1cccc(C(F)(F)F)c1F (single isomer, unassigned) [Example 144] | 4 | 3
8 | Cc1c([C@@H](C)NC(=O)c2cn(C3CCOCC3)c(=O)cc2N[C@H]2C[C@H](N(C)C)C2)cccc1C(F)(F)F [Example 7, 4-(((1r,3R)-3-(dimethylamino)cyclobutyl)amino)-N-((R)-1-(2-methyl-3-(trifluoromethyl)phenyl)ethyl)-6-oxo-1-(tetrahydro-2H-pyran-4-yl)-1,6-dihydropyridine-3-carboxamide] | 53.4 | 20
9 | C[C@@H](NC(=O)c1cn([C@H]2CC23CC3)c(=O)cc1N[C@H]1[C@@H]2CN(C)C[C@@H]21)c1cccc(C(F)F)c1F (single isomer, unassigned) [Example 115] | 14.1 | 6
10 | C[C@@H](NC(=O)c1cn(C23CC(F)(C2)C3)c(=O)cc1N[C@H]1[C@@H]2CN(C)C[C@@H]21)c1cccc(C(F)F)c1F [Example 102, N-((R)-1-(3-(difluoromethyl)-2-fluorophenyl)ethyl)-1-(3-fluorobicyclo[1.1.1]pentan-1-yl)-4-(((1R,5S,6s)-3-methyl-3-azabicyclo[3.1.0]hexan-6-yl)amino)-6-oxo-1,6-dihydropyridine-3-carboxamide] | 12.1 | 8
11 | C[C@@H](NC(=O)c1cn(C2CCOC(C)(C)C2)c(=O)cc1N[C@H]1[C@@H]2CN(C)C[C@@H]21)c1cccc(C(F)F)c1F (stereo partly drawn) [Example 122, N-((R)-1-(3-(difluoromethyl)-2-fluorophenyl)ethyl)-1-(2,2-dimethyltetrahydro-2H-pyran-4-yl)-4-(((1R,5S,6s)-3-methyl-3-azabicyclo[3.1.0]hexan-6-yl)amino)-6-oxo-1,6-dihydropyridine-3-carboxamide] | 17.4 | 9
12 | Cc1c([C@@H](C)NC(=O)c2cn(C3CCOCC3)c(=O)cc2NCC2CN(C)C2)cccc1C(F)(F)F [Example 8, (R)-N-(1-(2-methyl-3-(trifluoromethyl)phenyl)ethyl)-4-(((1-methylazetidin-3-yl)methyl)amino)-6-oxo-1-(tetrahydro-2H-pyran-4-yl)-1,6-dihydropyridine-3-carboxamide] | 48.6 | 12
13 | C[C@@H](NC(=O)c1cn(C23CC(F)(C2)C3)c(=O)cc1NC1[C@@H]2CC[C@H]1CN(C)C2)c1cccc(C(F)F)c1F (stereo partly drawn) [Example 136, N-((R)-1-(3-(difluoromethyl)-2-fluorophenyl)ethyl)-1-(3-fluorobicyclo[1.1.1]pentan-1-yl)-4-(((1R,SS,8s)-3-methyl-3-azabicyclo[3.2.1]octan-8-yl)amino)-6-oxo-1,6-dihydropyridine-3-carboxamide] | 6 | 3
14 | N-((R)-1-(3-(difluoromethyl)-2-fluorophenyl)ethyl)-1-(1- (difluoromethyl)cyclopropyl)-4-(((1R,5S,6s)-3-methyl-3-azabicyclo[3.1.0]hexan-6-yl)amino)-6- oxo-1,6-dihydropyridine-3-carboxamide [Example 55] | 23.6 | 12
15 | Cc1c([C@@H](C)NC(=O)c2cn(C3CCOCC3)c(=O)cc2N[C@H]2[C@@H]3CN(C)C[C@@H]32)cccc1C(F)(F)F [Example 26, N-((R)-1-(2-methyl-3-(trifluoromethyl)phenyl)ethyl)-4-(((1R,5S,6s)-3-methyl-3-azabicyclo[3.1.0]hexan-6-yl)amino)-6-oxo-1-(tetrahydro-2H-pyran-4-yl)-1,6-dihydropyridine-3-carboxamide] | 27.1 | 11
16 | Cc1c([C@@H](C)NC(=O)c2cn(C3CCOCC3)c(=O)cc2N[C@@H]2CCN(C)C2)cccc1C(F)(F)F [Example 3, N-((R)-1-(2-methyl-3-(trifluoromethyl)phenyl)ethyl)-4-(((R)-1-methylpyrrolidin-3-yl)amino)-6-oxo-1-(tetrahydro-2H-pyran-4-yl)-1,6-dihydropyridine-3-carboxamide] | 41.2 | 16
17 | C[C@@H](NC(=O)c1cn(C2(C(F)F)CC2)c(=O)cc1N[C@@H]1CCN(C)C[C@H]1F)c1cccc(C(F)F)c1F (single isomer, unassigned) [Example 65] | 50.4 | 48
18 | Cc1c([C@@H](C)NC(=O)c2cn(C3CCOCC3)c(=O)cc2NCCCN(C)C)cccc1C(F)(F)F [Example 9, (R)-4-((3-(dimethylamino)propyl)amino) -N-(1-(2-methyl-3-(trifluoromethyl)phenyl)ethyl)-6-oxo-1-(tetrahydro-2H-pyran-4-yl)-1,6-dihydropyridine-3-carboxamide] | 39 | 17
19 | CC(C)n1cc(C(=O)N[C@H](C)c2cccc(C(F)F)c2F)c(N[C@H]2[C@@H]3CN(C)C[C@@H]32)cc1=O [Example 99, N-((R)-1-(3-(difluoromethyl)-2-fluorophenyl)ethyl)-1-isopropyl-4-(((1R,5S,6s)-3-methyl-3-azabicyclo[3.1.0]hexan-6-yl)amino)-6-oxo-1,6-dihydropyridine-3-carboxamide] | 64.8 | 30
20 | [2H]C([2H])([2H])N1C[C@@H]2[C@H](C1)[C@H]2Nc1cc(=O)n(C23CC(C2)C3)cc1C(=O)N[C@H](C)c1cccc(C(F)F)c1F [Example 91, 1-(bicyclo[1.1.1]pentan-1-yl)-N-((R)-1-(3-(difluoromethyl)-2-fluorophenyl)ethyl)-4-(((1R,5S,6s)-3-(methyl-d3)-3-azabicyclo[3.1.0]hexan-6-yl)amino)-6-oxo-1,6-dihydropyridine-3-carboxamide] | 13.9 | 12
